Consider 2 molecules from US20080153792A1, “Drug Identification and Treatment Method” (priority 2006, published 2008).

Assay [1] relates to mice given a lethal amount of LPS. The experiment in a line: lethal shock protocol, lethal amount of bacterial LPS. The assay is classed as in vivo, mouse. To be noted: for survival 72 hours after LPS: first protocol. How it is done: Treatment of lethal inflammation/shock. Two compounds, 16α-bromoepiandrosterone (3β-hydroxy-16α-bromoandrostane-17-one) and 3β,16α-dihydroxy-17-oxoandrostane, were used in a lethal shock protocol. In one protocol, 3 mg of 16α-bromoepiandrosterone was administered to one group of animals by oral gavage, while another group received 3 mg of 16α-bromoepiandrosterone by subcutaneous injection. A group of control animals received a placebo control. In this protocol, the 16α-bromoepiandrosterone was administered to mice at 24 hours before and at 1 hour after administration of a lethal amount of bacterial lipopolysaccharide (LPS). By the end of the observation period, 72 hours after LPS administration, none of the vehicle treated placebo control animals had survived, while 65% of animals that received 16α-bromoepiandrosterone by oral administration survived. 50% of the animals that received 16α-bromoepiandrosterone by subcutaneous injection survived. Animals that survived for 72 hours all recovered from the LPS exposure.
In a second assay, 16α-bromoepiandrosterone or 3β,16α-dihydroxy-17-oxoandrostane was administered to mice by oral gavage at 24 hours before and 1 hour after administration of a lethal amount of LPS. A vehicle treated group of animals was used as the placebo control.

Assay [2] deals with mice, LPS induced lung injury. The experiment in a line: lung injury by sublethal LPS to trachea and lungs, BAL cell count. The assay is classed as in vivo, mouse. To be noted: oral gavage 24 h before and 1 h after 100 μg LPS; 48 hours. How it is done: In another assay, the capacity of 16α-bromoepiandrosterone and 3β,16α-dihydroxy-17-oxoandrostane to protect against lung injury induced by exposure to a sublethal amount of LPS in mice was shown. In this assay, the compounds, sterile saline (negative control) or vehicle (vehicle control) were administered to groups of 5 mice by oral gavage at 24 hours before and 1 hour after administration of 100 μg of LPS to the trachea and lungs of animals under light anesthesia. At 48 hours the animals were sacrificed and samples were obtained from the lungs of the animals by bronchiolar alveolar lavage (BAL). The numbers of cells in the BAL fluid were counted, with high numbers of cells showing lung inflammation and damage. In this assay, cells that mediate inflammation and lung damage infiltrate into the lungs in response to the presence of the LPS. In the negative control and vehicle control groups, the BAL fluid contained about 6×10^7 cells/mL. […] Other compounds, e.g., 17α-ethynylandrost-5-ene-3β,7β,17β-triol or 17β-aminoandrost-5-ene-3β-ol, can be characterized in a similar manner.

The next assay relates to Pseudomonas aeruginosa. In words: clearance of chronic lung infection in CFTR mice. The assay is classed as in vivo. As to conditions: 40 mg/kg; day 10; p=<0.04 vs vehicle. As for the experimental part:
Clearance of bacteria from lung tissue. The capacity of 16α-bromoepiandrosterone to clear a Pseudomonas aeruginosa infection from lung tissue was shown using a previously published protocol, A. van Heeckeren et al., J. Clin. Invest., 100(11):2810-2815 […]; A. van Heeckeren et al., Am. J. Respir. Crit. Care Med., 161:271-279 2000. The protocol was conducted in CFTR mice, which are used as an animal model for human cystic fibrosis, S. D. Freedman et al., Proc. Natl. Acad. Sci. USA, 96(24):13995-14000 1999; W. Zeng et al., Am. J. Physiol. Cell. Physiol. […] Establishment of chronic P. aeruginosa infection using agarose beads containing bacteria (50 μL containing about 6.1×10^4 CFU/animal) was published earlier, J. R. Starke et al., Pediatr. Res., 22:698-702 1987. Two groups of mice (n=9 for each group) were treated with 40 mg/kg of 16α-bromoepiandrosterone or vehicle (control) and the bacterial burden in the lungs of the animals was determined at 10 days after introduction of the agarose beads into the lung.

Assay [3] relates to γ-interferon production by human whole blood. The experiment in a line: γ-interferon production in human whole blood exposed to LPS. In kind it is cell-based. To be noted: LPS 24 hours; 16α-bromoepiandrosterone at 100 ng/mL. As for the experimental part:
Anti-inflammation activity in human cells in vitro. […] The amount of γ-interferon was measured in the growth medium when the cells had been incubated in the presence of LPS for 24 hours.

The next assay has as its system NF-κB. The experiment in a line: NF-κB-bla THP-1 β-lactamase reporter assay. In kind it is cell-based, human. As to conditions: this protocol. A general note: A reporter such as luciferase makes a cellular process visible.
The subject of assay [4] is CD4^+CD25^+ T regulatory cells. In words: CD4+CD25+ T regulatory cells after adoptive transfer of CD4+CD25- T cells. In kind it is in vivo, mouse. As to conditions: 1 mg/animal/day s.c. for 14 days. As for the experimental part: Inhibition of the generation of CD4^+CD25^+ T regulatory cells or their activity in vivo. Purified CD4^+CD25^− T cells (5×10^6 cells) from congenic B6.5JL mice (CD45.1) per group were adoptively transferred into each of five B6 mice (CD45.2). The purified CD4^+CD25^− T cells were obtained by fluorescence activated cell sorting (FACS) of the donor cells at least twice. Vehicle (0.1% carboxymethylcellulose, 0.9% saline, 2% tween 80, 0.05% phenol) or 16α-bromoepiandrosterone in vehicle (1 mg/animal/day in 100 μL vehicle) was injected subcutaneously before transfer of the cells from the CD45.1 donor animals and the injections were continued daily for 14 days. Thymus, lymph nodes and spleens were collected from the animals at day 15. Samples of thymus, lymph node and spleen were obtained from individuals, and the cells were labeled with fluorescent antibody that bound to CD4, CD25, CD103 or Foxp3. The cells were then analyzed by flow cytometry to enumerate the numbers of the various cell types. The remainder of cells from lymph nodes and spleen of each treatment group were pooled, pre-enriched for CD4^+CD25^+ cells and then analyzed for CD4^+CD25^+ that arose from the host (endogenous CD45.2 cells) and from donor cells (CD45.1 cells that converted from the CD4^+CD25^− donor phenotype to the CD4^+CD25^+ phenotype after residing in vivo for 15 days). The cells were analyzed by cell sorter. To test for regulatory function, varying numbers of purified converted CD45.1 or endogenous CD45.2 CD4^+CD25^+ cells were co-cultured with 2000 CD4^+CD25^− responder cells, 1×10^5 irradiated spleen cells as antigen presenting cells, and […] of anti-CD3 antibody. Fresh CD4^+CD25^+ cells were used as controls. Proliferation was determined by measurement of ^3H-thymidine uptake 4 days after initiation of culture.

Assay [5] has as its system CF-1 mice, hemorrhagic shock. The experiment in a line: hemorrhagic shock and ischemia with abdominal surgery. In kind it is in vivo, mouse. To be noted: 2 mg in resuscitation fluid; vehicle control 1/15. As for the experimental part:
The effect of compounds on hemorrhagic shock and ischemia was examined in another protocol. CF-1 mice at an age of 6-8 months were anesthetized using methoxyfluorothane and prepared for abdominal surgery. Each mouse was tested for the level of respiration, eye blink response and response to a skin pinch to ensure a level of anesthesia appropriate for surgery. The duration of abdominal surgery was approximately two hours, during which time 35-40% of the animal's blood volume is removed over a […]. The removal of blood in a controlled manner simulates the effect of hemorrhagic shock. A slow intravenous infusion of the removed blood and a 2× volume of resuscitation fluid (lactated Ringers solution) into a central vein was made. The resuscitation fluid was supplemented with either 2 mg dehydroepiandrosterone-3β-sulfate or the excipient as a placebo. The peritoneum and overlying skin were sutured separately. Animals were maintained at 38°-39° C. until recovery is complete. Under these conditions, most of the placebo-treated animals died within 24-48 hours. […] Mesenteric lymph nodes (MLN) were removed and cultured on blood agar plates and the number of CFUs counted following culturing. The liver was removed and the amount malondialdehyde was measured.

With `C[C@]12CC[C@H](O)C[C@@H]1CC[C@@H]1[C@@H]2CC[C@]2(C)C(=O)[C@H](Br)C[C@@H]12` [16α-bromoepiandrosterone], the “survival 72 hours after LPS” value in assay [1] (3 mg by oral gavage 24 h before and 1 h after LPS) is given as 65%; in assay [1] (3 mg by subcutaneous injection 24 h before and 1 h after LPS), 50%. Moreover, in assay [1] (second assay, oral gavage 24 h before and 1 h after LPS), the “survival at 72 hours” value is recorded as 80%. The “cell counts in the BAL fluid” value in assay [2] is listed as “about 4.4×10^7 cells/mL”. In the assay with Pseudomonas aeruginosa, the “bacterial burden in the lungs” value is on record as “reduced”. For the same molecule, in assay [3], the “production of γ-interferon” value is reported as “Reduced production”. Moreover, in the assay with NF-κB, the “maximum NF-κB inhibition” value is listed as 100%. The “average donor CD45.1 CD4^+CD25^+ cell number in spleens” value in assay [4] (day 15, vehicle 1.97×10^5) is 0.62×10^5 cells. The “average endogenous CD45.2 CD4^+CD25^+ cells in the thymus” value in assay [4] (day 15, vehicle 3.10×10^5) is 1.59×10^5. In addition, the “average endogenous CD45.2 CD4^+CD25^+ cell number in spleens” value in assay [4] (day 15, vehicle 9.54×10^6) was 5.49×10^6 cells. Further, the “proportion of endogenous CD45.2 CD4^+CD25^+CD103^+ Treg cells in spleens” value in assay [4] (vehicle 13.85%) came to 13.40%. In addition, in assay [4] (vehicle 29.06%), the “average of donor CD45.1 CD4^+CD25^+CD103^+ cells of total donor CD4^+CD25^+ cells in spleens” value worked out at 9.63%.

Turning to `C[C@]12CC[C@H](OS(=O)(=O)O)CC1=CC[C@@H]1[C@@H]2CC[C@]2(C)C(=O)CC[C@@H]12` [dehydroepiandrosterone-3β-sulfate], the survival in assay [5] is 15/15.
